Where only a bound is given, the exact number is not on record here.

By LD50 is commonly meant the dose expected to kill half of the subjects tested.

One data set relates to Hepatome AH 130. Nature of the data set: Hepatome AH 130 tumour growth inhibition in rats. It counts as in vivo, Sprague-Dawley rats. Details: ED50: unit not given here. Conditions: one i.p. injection; for ED50: dose causing 50 percent reduction of tumour size, killed 8th day. An excerpt: (§1) LD50 is the dose that causes a 50 percent lethality of the animals, and ED50 is the dose that causes a 50 percent reduction of tumour size.
(§2) The experimental design and the interpretation of the results are in accordance with the standards set by the CCNSC (Cancer Chemotherpy Reports, January 1959 and December 1962).
(§3) Experimental animals: Sprague-Dawley rats.
(§4) Tumour implant: 5 × 10^6 tumour cells i.p.
(§5) Therapy: One injection i.p. on the day following implanta-
(§6) Termination: The animals are killed on the 8th day.
(§7) Evaluation: Weights of tumours of test animals are compared
(§8) with those of control animals.

In data set [1] the test system is Walker carcinosarcoma 256. Nature of the data set: Walker carcinosarcoma 256 tumour growth inhibition in rats. To be noted: daily p.o. for 5 days; for antitumour activity: result in words. It counts as in vivo, Sprague-Dawley rats. Also on record: ED50: unit: mg/kg.
Source text: as §1, §2
(§9) Walker carcinosarcoma 256.
as §3
(§10) Tumour implant: Tumour pieces with 2-4 mm diameter, sub-
(§11) Therapy: Daily p.o. administration for 5 days starting on
(§12) the day following implantation.
(§13) Termination: The animals are killed on the 9th day.
as §7, §8

The subject of data set [2] is Ehrlich ascites tumour, ELD hyperdiploid. Nature of the data set: Ehrlich ascites tumour, ELD hyperdiploid (46 chromosomes), growth inhibition in mice. Type of data set: in vivo, SPF NMRI mice. Conditions: one i.p. injection, result in words.
Source text: as §2
Ehrlich ascites tumour, ELD hyperdiploid
Experimental animals: SPF NMRI mice.
Tumour implant: 2 × 10^6 tumour cells i.p.
as §5, §6
Evaluation: Weight of tumours of test animals compared with
those of control animals.

Data set [3] has as its target T1, rabbit uterus cytosol progesterone receptor (Oryctolagus cuniculus, UniProt P06186).
T1 construct: One ml portions of the supernatant (rabbit uterus cytosol) were pipetted into small centrifuge tubes of glass; from tissue; host or cells: uterus cytosol (105,000×g supernatant) of female rabbits pretreated with polyestradiol phosphate
T1 sequence (P06186 1-930): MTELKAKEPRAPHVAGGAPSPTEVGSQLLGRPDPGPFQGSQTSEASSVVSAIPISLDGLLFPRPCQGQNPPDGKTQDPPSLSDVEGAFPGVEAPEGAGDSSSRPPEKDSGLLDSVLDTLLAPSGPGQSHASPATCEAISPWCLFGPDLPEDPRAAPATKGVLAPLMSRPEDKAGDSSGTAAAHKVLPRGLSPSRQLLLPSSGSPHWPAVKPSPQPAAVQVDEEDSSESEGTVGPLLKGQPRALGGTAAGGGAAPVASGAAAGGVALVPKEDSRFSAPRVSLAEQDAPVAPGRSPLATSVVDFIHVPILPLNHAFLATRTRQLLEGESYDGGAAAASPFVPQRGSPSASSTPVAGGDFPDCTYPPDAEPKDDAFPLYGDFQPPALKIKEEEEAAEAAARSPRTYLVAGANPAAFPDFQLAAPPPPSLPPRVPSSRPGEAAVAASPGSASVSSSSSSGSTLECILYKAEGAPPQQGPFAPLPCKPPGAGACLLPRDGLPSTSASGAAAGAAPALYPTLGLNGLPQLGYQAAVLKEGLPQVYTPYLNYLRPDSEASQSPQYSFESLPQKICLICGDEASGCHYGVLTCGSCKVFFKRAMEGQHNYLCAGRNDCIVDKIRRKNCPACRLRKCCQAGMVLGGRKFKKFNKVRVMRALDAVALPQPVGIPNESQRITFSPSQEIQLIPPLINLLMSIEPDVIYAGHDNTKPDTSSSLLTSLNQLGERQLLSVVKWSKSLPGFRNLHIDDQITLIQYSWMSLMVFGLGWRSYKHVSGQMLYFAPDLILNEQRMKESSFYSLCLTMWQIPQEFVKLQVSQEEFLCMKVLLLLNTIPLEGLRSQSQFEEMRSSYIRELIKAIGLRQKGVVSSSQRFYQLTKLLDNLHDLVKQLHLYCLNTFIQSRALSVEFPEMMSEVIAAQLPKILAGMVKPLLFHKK
The data set is described as follows: Relative affinity to rabbit uterus cytosol progesterone receptor (3H-progesterone competition). Type of data set: binding. Conditions: compared to progesterone; 50% competition with 3H-progesterone; 16-18 hours at 4° C. As to the method:
This example illustrates the compound's relative affinity to rabbit uterus cytosol progesterone receptor compared with progesterone. The method used for this purpose is a modification of methods already described by Kontula, K. et al. (Acta Endocrinol. 78 (1975) 574) and Terenius, L. (Steroids 23 (1974) 909) among others.
Female rabbits (3-4 pounds) from Knut Larsen, Uddevalla, Sweden, were injected i.m. with 1 mg Estradurin (polyestradiol phosphate, 1 mg/ml saline, AB Leo, Sweden). After one week, the animals were killed and the uteri were immediately removed, chilled and cut free from connective tissues. All the following operations were performed at 0°-4° C. The uteri were cut into small pieces and washed several times with 3 vol. of buffer at pH 7.4 containing 50 MM TRIS-HCl, 1.5 mM EDTA, 3 mM NaN3, 2 mM dithiothreitol, and 25% glycerol (by vol.). The tissue was homogenized in the same buffer (3 vol.) with four 15-s bursts at rheostat setting 36-37 of an Ultra Turrax (Janke and Kunkel KG, Staufen, The Federal Republic of Germany). The homogenate was centifuged in a Sorvall GLC-2 centrifuge for 15 min at 600×g. The supernatanate was recentrifuged at 105,000×g for 60 min in a Beckman ultracentrifuge model LB-65-B with rotor SW 56.
One ml portions of the supernatant (rabbit uterus cytosol) were pipetted into small centrifuge tubes of glass and were kept at -70° C. until used. The protein content was determined by the method of Lowry (J. Biol. Chem. 193 (1951) 265).
10.0 mg of each compound was dissolved in 10.0 ml 99.5% ethanol. 100 μl of this standard solution was diluted to 5.0 ml ethanol/glycerol 1:1 (v/v). The ethanol was evaporated by blowing air at 40° C. on the solution. The volume was then adjusted to 5.0 ml by adding buffer without glycerol.
The compounds were diluted with glycerol/buffer 1:1 to final concentrations between 10^-8 -10^-5 M in total 300 μl incubation media. 100 μl of each compound and of each dilution were incubated in small centrifuge tubes (2 ml) together with 100 μl (10 pg) ^3 H-progesterone (1,2,6,7-3H-progesterone, 47.8 Ci/mMol, The Radiochemical Centre, Amersham, England) and 100 μl cytosol adjusted with buffer to a final concentration of about […]. The incubations were carried out for 16-18 hours at 4° C.
The separation of bound from free radioactivity was carried out at 0° C. using the dextran coated charcoal technique (DCC). To each incubation tube was added 0.5 ml DCC-suspension (0.05% dextran-70, Pharmacia, Uppsala, Sweden and 0.5% Norit A, Sigma, Saint Louis, Missouri, U.S.A.) The tubes were agitated 2-3 times during 10 minutes whereupon they were centrifuged at 100×g for five minutes. The supernatantes were decanted directly into Scintillation vials (polyethene, Packard) containing 10 ml InstaGel (Packard). The radioactivity was counted in a Philip's liquid scintillation spectrometer Model PW 4510/00 with external standard and automatic quenching correction.
To incubation tubes were added 100 μl cytosol, 100 μl ^3 H-progesterone (10 pg) and 100 μl of different dilutions of non-radioactive progesterone in glycerol/buffer 1:1 ranging from 0-10^4 pg/100 μl. The tubes were incubated parallel with the compounds described above. The radioactivity was calculated by substracting the counted radioactivity in the incubation tubes with the radioactivity counted in incubations tubes in which the cytosol was replaced with buffer (100 μl).
The concentration of non-radioactive progesterone [P]i which competes for 50% of bound radioactive progesterone was calculated from the standard curve constructed [B] i/[B] o=0.5 where [B]i is the bound radioactivity at different concentrations of non-radioactive progesterone and [B]o is the bound radioactivity at progesterone concentration zero.
In the same manner, curves were constructed for each compound X and the concentration for each compound which competes for 50% with bound ^3 H-progesterone ([X]50) was calculated. […]

Data set [4] can be described thus: Hepatome AH 130 tumour growth inhibition in rats. It counts as in vivo, Sprague-Dawley rats. Details: ED50: unit not given here. To be noted: rat, in vivo, ip, one i.p. injection; for LD50: dose causing 50 percent lethality, column head not given; for selectivity ratio: read-out: T.I. (LD50/ED50).
Source text: as §1, §2, §3, §4, §5, §6, §7, §8

The nature of data set [5]: Walker carcinosarcoma 256 tumour growth inhibition in rats. It counts as in vivo, Sprague-Dawley rats. Also on record: ED50: unit: mg/kg. Conditions: rat, in vivo, po, daily p.o. for 5 days.
Source text: as §1, §2, §9, §3, §10, §11, §12, §13, §7, §8

`CC(=O)[C@@]1(OC(=O)COC(=O)c2cccc(N(CCCl)CCCl)c2)CC[C@H]2[C@@H]3CCC4=CC(=O)CC[C@]4(C)[C@H]3CC[C@@]21C` [3:6, 17α-/3-(N,N-bis(2-chloroethyl)amino)benzoyloxyacetoxy/pregn-4-ene-3,20-dione]: the antitumour activity entry (with Hepatome AH 130 (result in words); in data set [1]; in data set [2]) was “exhibit antitumour activity” each time.

Regarding `CC(=O)[C@@]1(OC(=O)CNC(=O)CCCc2ccc(N(CCCl)CCCl)cc2)CC[C@H]2[C@@H]3CCC4=CC(=O)CC[C@]4(C)[C@H]3CC[C@@]21C` [Compound 4:1, 17α-/4-(4-(N,N-bis(2-chloroethyl)amino)phenyl)butanoylaminoacetoxy/pregn-4-ene-3,20-dione], the “relative binding affinity (RBA)” value in data set [3] is on record as 1.1%. In data set [4], the LD50 is over 250 mg/kg and the selectivity ratio was over 2. The compound also registered an ED50 in the data set with Hepatome AH 130 of 125. Further, in data set [1], the antitumour activity result is reported as “exhibit antitumour activity”. In data set [2], the antitumour activity result is on record as “exhibit antitumour activity”.

On to `CC(=O)[C@@]1(OC(=O)COC(=O)CCCc2ccc(N(CCCl)CCCl)cc2)CC[C@H]2[C@@H]3C=C(Cl)C4=CC(=O)[C@@H]5C[C@@H]5[C@]4(C)[C@H]3CC[C@@]21C` [3:11, 6-chloro-17α-[4-(4-(N,N-bis(2-chloroethyl)amino)phenyl)butanoyloxyacetoxy]-1α,2α-methylenepregna-4,6-diene-3,20-dione], for which the antitumour activity entry in data set [1] and in data set [2] was “exhibit antitumour activity” in each case.

As for `CC(=O)N[C@@H](Cc1ccc(N(CCCl)CCCl)cc1)C(=O)OCC(=O)O[C@]1(C(C)=O)CC[C@H]2[C@@H]3CCC4=CC(=O)CC[C@]4(C)[C@H]3CC[C@@]21C` [3:14, 17-[(2S)-2-acetamido-3-(4-(N,N-bis(2-chloroethyl)amino)phenyl)propanoyloxyacetoxy]pregn-4-ene-3,20-dione], the antitumour activity entry in data set [1] and in data set [2] was “exhibit antitumour activity” throughout.

For `CC(=O)[C@@]1(OC(=O)CCCOC(=O)Cc2ccc(N(CCCl)CCCl)cc2)CC[C@H]2[C@@H]3CCC4=CC(=O)CC[C@]4(C)[C@H]3CC[C@@]21C` [3:4, 17α-/4-(4-(N,N-bis(2-chloroethyl)amino)phenylacetoxyy)butanoyloxy/pregn-4-ene-3,20-dione], the 50% lethal dose (LD50) in data set [4] turned out to be 50 mg/kg; in data set [5] (dose causing 50 percent lethality), 80 mg/kg. The selectivity ratio came to 25 in data set [4] and 20 in data set [5] (read-out: T.I. (LD50/ED50)). In addition, the ED50 amounted to 2 with Hepatome AH 130 and 4 in data set [1] (dose causing 50 percent reduction of tumour size, killed 9th day). Moreover, in data set [2], the antitumour activity entry is reported as “exhibit antitumour activity”.

Turning to `CC(=O)[C@@]1(OC(=O)COC(=O)CCCc2ccc(N(CCCl)CCCl)cc2)CC[C@H]2[C@@H]3C[C@H](C)C4=CC(=O)CC[C@]4(C)[C@H]3CC[C@@]21C` [3:16, 17α-[4-(4-(N,N-bis(2-chloroethyl)amino)phenyl)butanoyloxyacetoxy]-6α-methylpregn-4-ene-3,20-dione], the antitumour activity entry in data set [1] and in data set [2] was “exhibit antitumour activity” in each case.

For `CC(=O)[C@@]1(OC(=O)COC(=O)CSc2ccc(N(CCCl)CCCl)cc2)CC[C@H]2[C@@H]3CCC4=CC(=O)CC[C@]4(C)[C@H]3CC[C@@]21C` [3:5, 17α-/4-(N,N-bis(2-chloroethyl)amino)phenylthioacetoxyacetoxy/pregn-4-ene-3,20-dione], the 50% lethal dose (LD50) in data set [4] is over 250 mg/kg. In addition, the selectivity ratio in data set [4] is over 5. The compound also yielded an ED50 in the data set with Hepatome AH 130 of 50. Besides, the antitumour activity result in data set [1] and in data set [2] was “exhibit antitumour activity” each time.

With `CC(=O)[C@@]1(OC(=O)CCCNC(=O)Cc2ccc(N(CCCl)CCCl)cc2)CC[C@H]2[C@@H]3CCC4=CC(=O)CC[C@]4(C)[C@H]3CC[C@@]21C` [6:1, 17α-/4-(4-(N,N-bis(2-chloroethyl)amino)phenylacetylamino)butanoyloxy/pregn-4-ene-3,20-dione], the antitumour activity result in data set [1] and in data set [2] was “exhibit antitumour activity” each time.
